The record followed here is publication PMC12948223, “HSP70 Interactome‐Mediated Proteolysis Targeting Chimera (HSP70‐PROTAC) for Ferroptosis‐Driven Cancer Treatment” (Advanced Science, 2025).

Data set [1] is described as follows: Pharmacokinetic study in ICR mice. Format: in vivo. As to conditions: mouse; male ICR mice, IP, 30 mg/kg, plasma. The procedure: To evaluate the in vivo pharmacokinetic (PK) profile of the GDAz‐3 and explore its therapeutic potential, a single intraperitoneal (IP) injection (30 mg kg^−1) was conducted in male ICR mice. Plasma samples were collected at predetermined time points and analyzed using LC‐MS/MS.
The tested compound GDAz‐3 was IP administered to ICR mice (male, n = 3 per time‐point). Blood samples were collected at 0.0833, 0.25, 0.5, 1, 2, 4, 8, and 24 h after IP administration (30 mg kg^−1) and then centrifuged at 6800 g for 6 min at 4 °C to obtain plasma, which were stored at −80 °C until analysis The compound concentrations in plasma were determined by liquid chromatography‐tandem mass spectrometry (API5000 LC‐MS/MS).

Data set [2] relates to GSH. The data set can be described thus: Intracellular GSH in HT1080 cells. As to conditions: 0.5 and 1 µM, 24 h. Format: cell-based, human. The procedure:
HT1080 cells were seeded into 10‐cm‐diameter culture dishes at a density of 2 × 10⁶ cells overnight and then exposed to GDAz‐3 (0.1, 0.5, and 1 µM). Followed by 24‐h incubation, the culture medium was discarded, and the cells were digested with trypsin. The cells were collected and washed with PBS, and threefold of protein removal reagent S was added. Two freeze‐thaw cycles were performed using liquid nitrogen and a 37 °C water bath, followed by a 5‐min ice bath. The samples were centrifuged at 10 000 × g for 10 min at 4 °C. The supernatant was collected and measured according to the instructions of the Total Glutathione Assay Kit (Beyotime Biotechnology, S0052) using a kinetic assay method.

The subject of data set [3] is Fe2+. The data set can be described thus: Intracellular Fe2+ in HT1080 cells. As to conditions: HT1080 cells, 0.1, 0.5 and 1 µM, 24 h. Format: cell-based, human. As to the method: HT1080 cells were seeded into 10‐cm culture dishes at a density of 2 × 10⁶ cells overnight, and various concentrations of GDAz‐3 (0.1, 0.5, and 1 µM) were added. The cells were digested and collected after treatment with drugs for 24 h. The cells were detected according to the instructions of the Cell Ferrous Iron (Fe^2⁺) Fluorometric Assay Kit (E‐BC‐F101, Elabscience Biotechnology Co., Ltd.). In brief, the cells were washed twice with Reagent 1 working solution in the kit, and then Reagent 2 working solution was added (1 mL per 10⁶ cells). The cells were incubated at 37 °C in the dark for 30–60 min. The samples were centrifuged at 300 × g for 5 min, and the supernatant was discarded. The cells were washed two to three times with Reagent 1 working solution. After resuspending the cells in 0.2–0.5 mL of Reagent 1 working solution, the samples were detected using a fluorescence microplate reader (excitation wavelength: 542 nm, emission wavelength: 575 nm).

In data set [4] the target is T1, GPX4 (Mus musculus, UniProt O70325).
T1 construct: endogenous in cells; host or cells: B16-F10
T1 sequence (O70325 1-170 isoform O70325-2): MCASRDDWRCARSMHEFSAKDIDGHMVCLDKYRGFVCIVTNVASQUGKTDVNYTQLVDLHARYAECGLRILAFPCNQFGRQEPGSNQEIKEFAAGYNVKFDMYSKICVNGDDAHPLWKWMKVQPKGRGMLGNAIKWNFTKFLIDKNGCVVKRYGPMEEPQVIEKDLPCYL
The data set can be described thus: GPX4 degradation by western blot in B16-F10 cells. Format: cell-based. As to conditions: 3 µM, 24 h. The procedure:
To further confirm this degradation efficacy, an in‐cell western (ICW) assay, a quantitative immunofluorescence cell‐based technique, was performed to quantify the relative expression level of GPX4 after treatment with GDAz‐3 for 24 h. […] Given the promising GPX4 degradation activity of GDAz‐3, we extended our evaluation to additional ferroptosis‐sensitive cell lines, including triple‐negative breast cancer cells (MDA‐MB‐231) and melanoma cells (mouse B16‐F10). […] Based on the observation that GDAz‐3 was particularly effective in HT1080 cells, we selected this cell line for further degradation mechanism and ferroptosis pharmacodynamics studies.
Cells were seeded at a density of 4 × 10^5 cells well^−1 in 6‐well plates and allowed to incubate overnight. Cells were incubated with the indicated treatments. Thereafter, the cells were collected and lysed with RIPA buffer containing serine protease and phosphatase inhibitors for 30 min on ice. Proteins were quantified by using a BCA protein assay kit (Beyotime). […] Ultimately, the membrane was washed five times, and the antibody‐protein complexes were visualized using an ECL luminescence reagent (Biosharp, Shanghai, China). The relative intensities of the bands were analyzed by ImageJ and normalized to a loading control.
Background: Immunoblotting shows a protein as a band on a membrane.

Data set [5] relates to SLC7A11. Briefly: Western blot of SLC7A11 in HT1080 cells. Type of data set: cell-based, human. As to conditions: 24 h.

In data set [1], `COc1ccc(-c2nc(-c3cc(C(F)(F)F)cc(C(F)(F)F)c3)n(Cc3ccc(C(=O)NCCOCCOCCOCCn4cc(COc5ccc(N(C(=O)CCl)C(C(=O)NCCc6ccccc6)c6cccs6)cc5Cl)nn4)cc3)c2-c2ccc(OC)cc2)cc1` (stereo not shown) [GDAz-3, 4-((2-(3,5-bis(trifluoromethyl)phenyl)-4,5-bis(4-methoxyphenyl)-1H-imidazol-1-yl)methyl)-N-(2-(2-(2-(2-(4-((2-chloro-4-(2-chloro-N-(2-oxo-2-(phenethylamino)-1-(thiophen-2-yl)ethyl)acetamido)phenoxy)methyl)-1H-1,2,3-triazol-1-yl)ethoxy)ethoxy)ethoxy)ethyl)benzamide] registered an AUC(0-inf) of 3140 ng·h/mL, an AUC(0-t) of 2450 ± 939 ng·h/mL, a Cmax of 201 ng/mL and an MRT inf of 15.5 ± 1.31 h. Further, in data set [1], the time to peak (Tmax) is 4 h and the half-life is 10.2 h. The “Level of intracellular GSH” value in data set [2] is reported as “significantly decreased”. The “Content of Fe2+” value in data set [3] is given as “increased”. The GPX4 level entry in data set [4] is given as “markedly decreased GPX4 level”. In data set [5], the “Effect on SLC7A11 protein” value is listed as “did not show a significant effect”.

A word on the AUC(0-inf): it is total exposure, with the tail of the curve extrapolated. Lower therefore signals low exposure. One may read the AUC(0-t) as exposure summed from dosing to a finite time, without extrapolation to infinity. A lower AUC(0-t) goes with low exposure. One may read the Cmax as the highest concentration seen after dosing. One may read the MRT inf as a mean duration of stay, worked out from the concentration-time curve. By Tmax is commonly meant the time from dosing to the highest level. The term half-life denotes the time needed for the level to fall by half in the phase considered.
